This note sets out measurements from patent publication US20200062773A1, “4,4a,5,7-TETRAHYDRO-3H-FURO[3,4-b]PYRIDINYL COMPOUNDS” (Janssen Pharmaceutlca NV, priority 2016, published 2020).

The test system of experiment [1] is Abeta 1-42 produced and secreted into the medium of human neuroblastoma SKNBE2 cells. Kind of experiment: Cellular αLisa assay in SKNBE2 cells. It counts as cell-based. To be noted: human neuroblastoma SKNBE2 cells expressing hAPP695, 18 hours incubation; for IC50: Homo sapiens, SKNBE2, 18 h, read-out: Cellular αLisa assay in SKNBE2 cells Abeta 42 pIC50 (converted). Here is the method: Cellular αLisa Assay in SKNBE2 Cells
In two αLisa assays the levels of Abeta 1-42 produced and secreted into the medium of human neuroblastoma SKNBE2 cells are quantified. The assay is based on the human neuroblastoma SKNBE2 expressing the wild type Amyloid Precursor Protein (hAPP695). The compounds are diluted and added to these cells, incubated for 18 hours and then measurements of Abeta 1-42 are taken. Abeta 1-42 are measured by sandwich αLisa. αLisa is a sandwich assay using biotinylated antibody AbN/25 attached to streptavidin coated beads and antibody cAb42/26 conjugated acceptor beads for the detection of Abeta 1-42 respectively. In the presence of Abeta 1-42, the beads come into close proximity. The excitation of the donor beads provokes the release of singlet oxygen molecules that trigger a cascade of energy transfer in the acceptor beads, resulting in light emission. Light emission is measured after 1 hour incubation (excitation at […] and emission at 615 nm).
(§1) A best-fit curve is fitted by a minimum sum of squares method to the plot of % Controlmin versus compound concentration. From this an IC50 value (inhibitory concentration causing 50% inhibition of activity) can be obtained.

Another experiment concerns the target T1, BACE2 (Homo sapiens, UniProt Q9Y5Z0).
T1 construct: recombinant BACE2 protein in a final concentration of 0.4 μg/ml
T1 sequence (Q9Y5Z0 63-518): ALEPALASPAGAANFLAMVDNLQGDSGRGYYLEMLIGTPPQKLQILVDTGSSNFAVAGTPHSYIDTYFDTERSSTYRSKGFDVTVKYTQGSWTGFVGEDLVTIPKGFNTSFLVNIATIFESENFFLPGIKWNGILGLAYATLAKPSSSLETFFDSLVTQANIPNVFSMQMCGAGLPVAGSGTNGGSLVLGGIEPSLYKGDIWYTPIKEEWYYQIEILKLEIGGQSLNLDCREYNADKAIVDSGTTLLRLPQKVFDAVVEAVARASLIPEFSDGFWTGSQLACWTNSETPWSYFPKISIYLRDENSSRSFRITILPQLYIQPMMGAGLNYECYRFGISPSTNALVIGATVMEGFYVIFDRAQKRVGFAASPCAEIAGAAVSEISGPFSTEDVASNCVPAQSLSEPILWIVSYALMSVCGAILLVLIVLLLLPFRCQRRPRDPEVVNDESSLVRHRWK
Kind of experiment: BACE2 biochemical FRET based assay. To be noted: recombinant BACE2, 450 minutes at room temperature, pH 5.0; for IC50: read-out: Biochemical FRET based assay pIC50 (converted).
Text: BACE2 Biochemical FRET Based Assay
(§2) This assay is a Fluorescence Resonance Energy Transfer Assay (FRET) based assay. The substrate for this assay contains the ‘Swedish’ Lys-Met/Asn-Leu mutation of the amyloid precursor protein (APP) beta-site APP-cleaving enzyme cleavage site. This substrate also contains two fluorophores: (7-methoxycoumarin-4-yl) acetic acid (Mca) is a fluorescent donor with excitation wavelength at 320 nm and emission at 405 nm and 2,4-Dinitrophenyl (Dnp) is a proprietary quencher acceptor. […] Upon cleavage by the beta-site APP-cleaving enzyme, the fluorophore Mca is separated from the quenching group Dnp, restoring the full fluorescence yield of the donor. The increase in fluorescence is linearly related to the rate of proteolysis.
Briefly in a 384-well format recombinant BACE2 protein in a final concentration of 0.4 μg/ml is incubated for 450 minutes at room temperature with 10 μM substrate in incubation buffer (50 mM Citrate buffer pH 5.0, 0.05% PEG, no DMSO) in the absence or presence of compound. Next the amount of proteolysis is directly measured by fluorescence measurement at T=0 and T=450 (excitation at 320 nm and emission at 405 nm). Results are expressed in RFU (Relative Fluorescence Units), as difference between T450 and T0.
as §1

The target of the next experiment is T2, BACE1 (Homo sapiens, UniProt P56817).
T2 construct: recombinant BACE1 protein in a final concentration of 1 μg/ml
T2 sequence (P56817 46-501): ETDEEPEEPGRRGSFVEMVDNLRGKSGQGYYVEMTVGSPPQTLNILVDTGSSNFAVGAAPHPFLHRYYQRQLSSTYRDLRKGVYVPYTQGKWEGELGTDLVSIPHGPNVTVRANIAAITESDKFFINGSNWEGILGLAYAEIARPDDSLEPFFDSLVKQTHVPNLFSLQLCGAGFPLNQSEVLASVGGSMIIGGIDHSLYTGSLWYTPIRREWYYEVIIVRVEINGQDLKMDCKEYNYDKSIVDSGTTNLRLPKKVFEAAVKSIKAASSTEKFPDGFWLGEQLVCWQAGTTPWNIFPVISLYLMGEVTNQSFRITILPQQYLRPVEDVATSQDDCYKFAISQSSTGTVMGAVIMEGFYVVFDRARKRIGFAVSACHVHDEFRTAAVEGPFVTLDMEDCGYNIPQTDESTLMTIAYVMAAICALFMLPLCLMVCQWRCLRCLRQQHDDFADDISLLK
The experiment in a line: BACE1 biochemical FRET based assay. Particulars: Method 1: recombinant BACE1 1 μg/ml, 120 min at room temperature, pH 5.0; for IC50: read-out: Biochemical FRET based assay pIC50 (converted).
Text: BACE1 Biochemical Fret Based Assay
as §2, with “this assay is an APP derived 13 amino acids peptide that contains the” for “this assay contains the”, “cleavage by BACE1, the fluorophore” for “cleavage by the beta-site APP-cleaving enzyme, the fluorophore”
Briefly in a 384-well format recombinant BACE1 protein in a final concentration of 1 μg/ml is incubated for 120 minutes at room temperature with 10 μm substrate in incubation buffer (40 mM Citrate buffer pH 5.0, 0.04% PEG, 4% DMSO) in the absence or presence of compound. Next the amount of proteolysis is directly measured by fluorescence measurement at T=0 and T=120 (excitation at 320 nm and emission at 405 nm). Results are expressed in RFU (Relative Fluorescence Units), as difference between T120 and T0.
as §1

In the case of `C[C@]1(C#N)C[C@H]2[C@H](C(F)(F)F)OC[C@@]2(c2cc(NC(=O)c3cnc(OCF)cn3)ccc2F)N=C1N` [7c], the “Cellular αLisa assay in SKNBE2 cells Abeta 42 pIC50” value (shortened to “Cellular αLisa assay”) in experiment [1] worked out at 5.32. The “Biochemical FRET based assay pIC50” value was under 5 on BACE2 and 5.97 on BACE1.
With `C[C@@]1(C#N)C[C@@H]2[C@@H](C(F)(F)F)OC[C@]2(c2cc(NC(=O)c3ncc(Cl)cn3)ccc2F)N=C1N` [8c], in experiment [1], the “Cellular αLisa assay” value came out at 8.17. The “Biochemical FRET based assay pIC50” value on BACE2 is 8.46; on BACE1 it was 8.75.
Consider `C[C@H]1OC[C@]2(c3cc(NC(=O)c4cnc(OCF)cn4)ccc3F)N=C(N)[C@](C)(C#N)C[C@H]12` (single isomer, unassigned) [9b], for which the “Cellular αLisa assay” value in experiment [1] is 8.74. Further, the “Biochemical FRET based assay pIC50” value at BACE2 worked out at 7.19; on BACE1 it was 8.28.
Take `COc1cc(C(=O)Nc2ccc(F)c([C@]34CO[C@H](C(C)(F)F)[C@H]3C[C@@](C)(C#N)C(N)=N4)c2)ncn1` [18a]: the IC50 in experiment [1] was 138 nM; on BACE2 it was 1200 nM; at BACE1 it was 24.5 nM.
As for `CC1OCC2(c3cc(NC(=O)c4cnc(OCF)cn4)cc(F)c3F)N=C(N)C(C)(C#N)CC12` (single isomer, unassigned) [31d], the “Cellular αLisa assay” value in experiment [1] is under 5.05. The IC50 at BACE2 and on BACE1 was over 10000 nM each time.
For `C[C@]1(C#N)C[C@H]2[C@H](C(F)(F)F)OC[C@@]2(c2cc(NC(=O)c3ccc(F)cn3)ccc2F)N=C1N` [2d], in experiment [1], the “Cellular αLisa assay” value is under 5.05. The “Biochemical FRET based assay pIC50” value at BACE2 is under 5; on BACE1, 5.
`C[C@@]1(C#N)C[C@@H]2[C@@H](C(F)F)OC[C@]2(c2cc(NC(=O)c3cnc(-n4cncn4)cn3)ccc2F)N=C1N` [26a]: the results for the IC50 (in experiment [1]; on BACE2; on BACE1) were 31.6 nM, 105 nM and 9.77 nM, respectively.
For `CC1OCC2(c3cc(NC(=O)c4ccc(OC(F)F)cn4)ccc3F)N=C(N)C(C)(C#N)CC12` (single isomer, unassigned) [35b], the “Cellular αLisa assay” value in experiment [1] is reported as 6.11. The IC50 on BACE2 was over 10000 nM; at BACE1, 741 nM.
Consider `C[C@@]1(C#N)C[C@H]2[C@H](C(F)(F)F)OC[C@@]2(c2cc(NC(=O)c3ccc(F)cn3)ccc2F)N=C1N` [2e], for which the “Cellular αLisa assay” value in experiment [1] is reported as under 5.05. Further, the “Biochemical FRET based assay pIC50” value at BACE2 and on BACE1 was under 5 each time.
As for `CC1OCC2(c3cc(NC(=O)c4cnc(-n5cncn5)cn4)cc(F)c3F)N=C(N)C(C)(C#N)CC12` (single isomer, unassigned) [32b], the “Cellular αLisa assay” value in experiment [1] was 5.97. In addition, the IC50 on BACE2 was 9550 nM; at BACE1 it was 309 nM.
The corresponding values for `CC1OCC2(c3cc(NC(=O)c4cnc(-n5cncn5)cn4)ccc3F)N=C(N)C(C)(C#N)CC12` (single isomer, unassigned) [15b] are 5.62, over 10000 nM and 1550 nM.
Turning to `CC1OCC2(c3cc(NC(=O)c4ccc(C#N)cn4)cc(F)c3F)N=C(N)C(C)(C#N)CC12` (single isomer, unassigned) [33c], the “Cellular αLisa assay” value in experiment [1] was determined as 7.37. The IC50 at BACE2 is 468 nM; on BACE1 it was 35.5 nM.
For the compound `COc1cnc(C(=O)Nc2ccc(F)c([C@@]34CO[C@@H](C)[C@@H]3C[C@](C)(C#N)C(N)=N4)c2)cn1` [1a], the “Cellular αLisa assay” value in experiment [1] stood at 5.12. Also, the “Biochemical FRET based assay pIC50” value was under 5 on BACE2 and 5.05 at BACE1.
Take `C[C@H]1OC[C@]2(c3cc(NC(=O)c4ccc(C#N)cn4)ccc3F)N=C(N)[C@@](C)(C#N)C[C@H]12` [6b]: the “Cellular αLisa assay” value in experiment [1] came to 8.12. For the same compound, the “Biochemical FRET based assay pIC50” value came to 6.68 on BACE2 and 7.89 at BACE1.
On to `CC1OCC2(c3cc(NC(=O)c4ccc(C#N)cn4)cc(F)c3F)N=C(N)C(C)(C#N)CC12` (single isomer, unassigned) [33a], for which the “Cellular αLisa assay” value in experiment [1] worked out at 5.14. Also, the results for the IC50 on BACE2 and at BACE1 were over 10000 nM and 7590 nM, respectively.
Consider `COc1cnc(C(=O)Nc2ccc(F)c([C@@]34CO[C@@H](C)[C@@H]3C[C@@](C)(S(C)(=O)=O)C(N)=N4)c2)cn1` (single isomer, unassigned) [13b], for which the “Cellular αLisa assay” value in experiment [1] worked out at 5.75. The “Biochemical FRET based assay pIC50” value on BACE2 was under 5; on BACE1 it was 5.48.
In the case of `CC1OCC2(c3cc(NC(=O)c4ccc(C#N)cn4)cc(F)c3F)N=C(N)C(C)(C#N)CC12` (single isomer, unassigned) [33b], the “Cellular αLisa assay” value in experiment [1] worked out at 7.81. Also, the IC50 on BACE2 was 44.7 nM; at BACE1 it was 5.5 nM.
Regarding `Cl.NC1=N[C@@]2(c3cc(NC(=O)c4ccc(F)cn4)ccc3F)CO[C@H](C(F)(F)F)[C@H]2CC1` [12c], in experiment [1], the “Cellular αLisa assay” value worked out at 8.13. Further, the figures for the “Biochemical FRET based assay pIC50” value on BACE2 and at BACE1 were 7.26 and 7.95, respectively.
The corresponding values for `C[C@]1(C#N)C[C@H]2[C@H](C(F)(F)F)OC[C@@]2(c2cc(NC(=O)c3ncc(Cl)cn3)ccc2F)N=C1N` [8d] are 5.1, 5.08 and 5.37.
In the case of `CC1OCC2(c3cc(NC(=O)c4cnc(OCF)cn4)cc(F)c3F)N=C(N)C(C)(C#N)CC12` (single isomer, unassigned) [31b], the “Cellular αLisa assay” value in experiment [1] was under 5.05. For the same compound, the IC50 on BACE2 was over 10000 nM; at BACE1, 8710 nM.
Take `CC1OCC2(c3cc(NC(=O)c4cnc(-n5cncn5)cn4)cc(F)c3F)N=C(N)C(C)(C#N)CC12` (single isomer, unassigned) [32a]: in experiment [1], the “Cellular αLisa assay” value is reported as 7.51. For the same compound, the IC50 on BACE2 was 347 nM; at BACE1 it was 19.1 nM.
For the compound `C[C@@]1(C#N)C[C@H]2[C@H](C(F)(F)F)OC[C@@]2(c2cc(NC(=O)c3cnc(OCF)cn3)ccc2F)N=C1N` [7f], the “Cellular αLisa assay” value in experiment [1] came out at 5.43. Also, the “Biochemical FRET based assay pIC50” value on BACE2 was under 5; on BACE1 it was 5.74.
